Measurements reported in ChEMBL document CHEMBL3112423, “Selective EP4 Antagonist May Be Useful in Treating Arthritis and Arthritic Pain” (ACS Med Chem Lett, 2014).

Assays:
[1] = target: T1, Prostaglandin E2 receptor EP3 subtype (Homo sapiens, UniProt P43115); test: Displacement of [3H]-PGE2 from human EP3 receptor expressed in HEK293 cell membranes after 90 mins by topcount scintillation counting analysis
T1 sequence (P43115 whole entry): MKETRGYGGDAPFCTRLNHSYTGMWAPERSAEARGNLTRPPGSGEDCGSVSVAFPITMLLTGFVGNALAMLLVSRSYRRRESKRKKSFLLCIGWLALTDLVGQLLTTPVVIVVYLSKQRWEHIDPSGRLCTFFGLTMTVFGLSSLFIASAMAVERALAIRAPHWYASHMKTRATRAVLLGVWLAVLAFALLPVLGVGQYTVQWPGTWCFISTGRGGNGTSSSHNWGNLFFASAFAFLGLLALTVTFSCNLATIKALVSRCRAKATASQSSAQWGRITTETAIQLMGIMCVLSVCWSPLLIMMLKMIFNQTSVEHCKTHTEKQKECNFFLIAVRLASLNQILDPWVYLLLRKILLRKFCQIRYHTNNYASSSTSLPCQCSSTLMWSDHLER

[2] = target: T2, Prostaglandin E2 receptor EP1 subtype (Homo sapiens, UniProt P34995); test: Displacement of [3H]-PGE2 from human EP1 receptor expressed in recombinant HEK293 cell membranes after 90 mins by topcount scintillation counting analysis
T2 sequence (P34995 whole entry): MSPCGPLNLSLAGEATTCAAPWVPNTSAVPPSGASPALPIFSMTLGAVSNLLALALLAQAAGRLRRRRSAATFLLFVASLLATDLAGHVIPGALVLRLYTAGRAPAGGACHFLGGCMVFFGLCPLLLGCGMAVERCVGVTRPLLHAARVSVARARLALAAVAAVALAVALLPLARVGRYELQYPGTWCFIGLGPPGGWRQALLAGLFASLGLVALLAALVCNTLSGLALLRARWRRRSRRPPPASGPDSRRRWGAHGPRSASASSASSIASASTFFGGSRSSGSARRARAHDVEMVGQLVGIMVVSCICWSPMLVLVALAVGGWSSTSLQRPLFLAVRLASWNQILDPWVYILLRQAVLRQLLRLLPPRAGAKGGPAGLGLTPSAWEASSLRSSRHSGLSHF

C[C@H](NC(=O)[C@H]1CCCCN1CCOc1ccccc1)c1ccc(C(=O)O)cc1
Ki [1]: > 14 µM
Ki [2]: > 17.5 µM
